According to PubChem BioAssay (NCI):
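Method: 48-hour compound exposure of cells in 96-well plates, five concentrations, linear interpolation of endpoints. Abbreviation: GI50, concentration required for 50% inhibition of growth. Definition used: TGI = concentration required for complete inhibition of growth.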

Assays:
Experiment in all cases: inhibition of tumour cell growth, NCI panel, 48 h
UACC-257 melanoma = tested on: UACC-257 melanoma
NCI-H226 lung = tested on: NCI-H226 lung
SW-620 colon = tested on: SW-620 colon
A549 NSCLC = tested on: A549 NSCLC
RPMI-8226 leukemia = tested on: RPMI-8226 leukemia
BT-549 breast = tested on: BT-549 breast
OVCAR-3 ovarian = tested on: OVCAR-3 ovarian
HT29 colon = tested on: HT29 colon
SK-OV-3 ovarian = tested on: SK-OV-3 ovarian
MDA-MB-231 breast = tested on: MDA-MB-231 breast
KM12 colon = tested on: KM12 colon
U251 CNS = tested on: U251 CNS
MDA-MB-435 = tested on: MDA-MB-435
HS 578T breast = tested on: HS 578T breast

Structure (SMILES) | TGI (UACC-257 melanoma) [µM] | TGI (NCI-H226 lung) [µM] | TGI (SW-620 colon) [µM] | TGI (A549 NSCLC) [µM] | TGI (RPMI-8226 leukemia) [µM] | GI50 (BT-549 breast) [µM] | GI50 (OVCAR-3 ovarian) [µM] | TGI (HT29 colon) [µM] | GI50 (SK-OV-3 ovarian) [µM] | TGI (MDA-MB-231 breast) [µM] | TGI (KM12 colon) [µM] | TGI (U251 CNS) [µM] | TGI (MDA-MB-435) [µM] | TGI (BT-549 breast) [µM] | TGI (OVCAR-3 ovarian) [µM] | TGI (SK-OV-3 ovarian) [µM] | TGI (HS 578T breast) [µM]
COc1cc2c(c(OC)c1OC)-c1ccc(SC)c(=O)cc1[C@@H](O)CC2 | > 100 | 0.0169 | > 100 | > 100 | > 100 | 98.4 | 0.000322 | 0.0703 | > 100 |  |  |  |  |  |  |  | 
CC(Nc1ccc(Cl)c(Cl)c1)c1ccncc1 (configuration not stated) | > 100 | 81.6 | 78.5 | > 100 | 28.7 |  |  | 72.4 |  | 45.1 | 40.1 | 46.2 | > 100 | 86.3 | 84.3 | 29.3 | 
S=c1ncc2c([nH]1)C1c3ccccc3C2c2ccccc21 |  | > 100 | > 100 | > 100 | > 100 |  |  |  |  |  | > 100 | > 100 |  |  | > 100 |  | 
C=C1C(=O)O[C@H]2C1C[C@@H](OC(C)=O)/C(C)=C/CC[C@@]1(C)O[C@H]21 (some centres not stated) | 19.6 |  | 20.4 | > 100 | 13.6 |  |  | 41.5 |  |  | 44.2 | > 100 | 87.7 | 19 |  | 64 | 86
CCCCCc1c(CCCC)c(=O)[nH]c2nc(NC(=O)CCCC)ccc12 | > 100 | > 100 | > 100 | > 100 | > 100 |  |  |  |  | > 100 | > 100 | > 100 | > 100 | > 100 | > 100 | > 100 | 
O=Cc1cc(C(=O)OCc2ccccc2)n(S(=O)(=O)c2ccccc2)c1 | 64 |  |  | 68.7 |  |  |  | 48.4 |  | 78.1 | 37.6 |  | 12.9 | 33.9 | 35.6 | 66.3 | 49.2
COc1c(C(=O)NCCN(CCNC(=O)c2cccc(-c3cccc(C(=O)N(C)C)c3OC)c2OC)CCNC(=O)c2cccc(-c3cccc(C(=O)N(C)C)c3OC)c2OC)cccc1-c1cccc(C(=O)N(C)C)c1OC | 75.5 | 36.6 | > 100 | > 100 | 63.7 |  |  | > 100 |  | 81.2 | 31.6 | > 100 | 39.8 |  | 32.5 | > 100 | 87.3
Cn1c2ccccc2c(=O)c2c(O)cc3c(c21)C=CC(C)(C)O3 | > 25 | > 25 | > 25 | > 25 | > 25 |  |  | > 25 |  |  | > 25 | > 25 |  |  | > 25 | > 25 | 
CCOP(=O)(OCC)C(NC(=O)C(C(F)(F)F)C(F)(F)F)c1ccccc1 (configuration not stated) | > 100 |  | > 100 | > 100 | 67 |  |  | > 100 |  | > 100 | > 100 | > 100 | > 100 |  | > 100 | > 100 | > 100
